# Measurements published in patent US10287259B2, “Selenazolidine and thiazolidine compounds for treating cancer and other diseases” (The Penn State Research Foundation, priority 2016, dated 2019).
# pEC50, pIC50: −log10 of the molar value.
# Columns and labels:
# LNCaP cells = test: MTT cell viability test, LNCaP; assay type: cell-based; details: Homo sapiens, time and concentration dependent, read-out: EC50, growth inhibition of LNCaP cells
# Description: (§1) MTT (3-(4,5-dimethylthiazol-2-yl)-2,5-diphenyltetrazolium) assay was performed to determine the effect of AS-10 on cancer cell viability (Plano et al., 2016, J. Med. Chem. 1946-1959; Alcolea et al., 2012, Eur. J. Med. Chem. 113:134-144; Kumar et al., 2014, Eur. J. Med. Chem. 81:267-276). Briefly, 3×10^3 cells were treated with different concentrations of AS-10 in triplicate in a 96-well plate for different time points. MTT solution (20 μL of 5.0 mg/mL solution) was added to each well, three hours prior to termination time point and incubated at 37° C. Resultant formazan crystals, at termination time point, were dissolved in 50 μL DMSO. The plate was subjected to a 96-well multiscanner (Dynex Technologies, MRX Revelation; Chantilly, Va., USA) for measuring the optical densities at 570 nm and 630 nm. IC50 values were determined by performing non-linear regression using Graphpad Prism software.
# Panc-1 cells [1] = test: Muse caspase 3/7 activity assay; assay type: cell-based; details: Panc-1, 10 μM
# Description: To evaluate the efficacy of AS-10 in inducing caspase 3, Panc-1 cells were treated with AS-10 at different concentrations for different time points. Caspase 3/7 activity was measured using Muse Caspase-3/7 Assay kit with Muse cell analyzer (EMD Millipore, Billercia, Mass. USA) according to manufacturer's protocol (Plano et al., 2016, J. Med. Chem. 1946-1959). In brief, the Muse Caspase 3/7 kit contains a reagent namely NucView for detection of activated caspase 3/7. The reagent is cell membrane permeable and contains a DNA binding dye that is linked to a DEVD peptide substrate. In presence of activated caspase 3/7, DEVD is cleaved and DNA binding dye is released. Therefore, cells with active caspase 3/7 activity will yield high fluorescence. (Ref Millipore, Catlog No. MCH100108). The kit also contains a dead cell marker, 7-AAD, for detection of cells with compromised cell membrane. Data from Muse cell analyzer were analyzed using Muse 1.4 software.
# [2] = tested on: Mouse embryonic fibroblast cells (MEFs); test: cells; assay type: cell-based
# Description: as §1
# To determine that AS-10 was selectively toxic to cancer cells, the effect of AS-10 in normal Mouse embryonic fibroblast cells (MEFs) was tested using MTT assay. MEFs were treated with AS-10 for 48 h and the data was compared with Panc-1 cells, treated for 48 h. […] At the dose which yields 50 percent growth inhibition in PC cells, AS-10 had no effect on MEFs growth.
# NF-κB = test: Electrophoretic mobility shift assay (EMSA); assay type: cell-based; details: Panc-1, 6 h pretreatment, TNF-α 30 min
# Description: To determine NF-κB activation, Panc-1 (1×10^6) cells were treated with different doses of AS-10 for 6 h. Thirty minutes before termination cells were stimulated with 100 ng/mL TNF-α (which is about 3.9 nM in media after addition). At the end of thirty minutes, cells were immediately stored on ice. Nuclear and cytosolic extracts were prepared as described previously (Pandey et al., 2007, J. Biol. Chem. 282: 17340-17350). Nuclear lysates were subjected to EMSA following the protocol (Pandey et al., 2007, J. Biol. Chem. 282: 17340-17350). The dried gels were exposed to X-ray films at −80° C. for exposure.
# BxPC3 cells = test: MTT cell viability assay, BxPC3; assay type: cell-based; details: Homo sapiens, BXPC-3, different time points (24, 48, 72 h)
# Description: as §1
# To test the anti-cancer activity of AS-10 in pancreatic cancer (PC) cell lines, a MTT assay was performed. PC cell lines, Panc-1 and BxPC3, were treated with AS-10 at different doses at different time points (24, 48, and 72 h). Resulting cells were subjected to MTT cell viability assay. […] After 48 h, live cells were counted and plated in a new petri dish. […] At the end of 17 days the colonies were counted and compared to the untreated cells.
# [3] = tested on: HCT116 colon cancer xenograft; test: Colon cancer xenograft tumor inhibition; assay type: in vivo
# Description: Athymic nude mice were used to evaluate the tumor inhibitory effect of AS-10 against a xenograft model of colon cancer. Approximately, 5×10^6 cells (HCT116) were inoculated into both left and right flanks of mice. After eight days, vehicle (DMSO) or AS-10 (45.2 mg/Kg) were injected via IP injection three times per week for 18 days.
# Panc-1 cells [4] = test: Muse Live/dead Annexin V assay; assay type: cell-based; details: Panc-1, 48 h; AS-10 2.5 μM, gemcitabine 50 μM
# Description: Muse Annexin V & Dead Cell kit was used to determine the apoptosis cells in AS-10 treated Panc-1 cells (Plano et al., 2016, J. Med. Chem. 1946-1959). The Muse Annexin V & Dead cell assay contains Annexin V to detect phosphatidylserine (PS) on the outer surface of cells. The kit also contains a dead cell marker, 7-amino-actinomycin D (7-AAD). […] In brief, Panc-1 (1.5×10^5) cells were treated with a given dose of AS-10 or DMSO for appropriate time (0, 6, 12, 24, 36, or 48 h). Both floating cells as well as adherent cells were collected and subjected for Annexin V staining using Muse Annexin V & Dead Cell kit with Muse cell analyzer (EMD Millipore, Billerica, Mass., USA). The obtained data were analyzed using Muse 1.4 software.
# [5] = tested on: androgen receptor (AR) signaling in LNCaP cells; test: AR / PSA and DNA damage response proteins in LNCaP cells; assay type: cell-based
# [6] = Maximum tolerated dose (MTD) / toxicology studies in mice
compound,measurement,setting,value
"CC(=O)Oc1ccccc1C(=O)/N=C1\[Se]CCN1C(=O)c1ccccc1OC(C)=O [AS-10, 2-((3-(2-acetoxybenzoyl)-1,3-selenazolidin-2-ylidene)carbamoyl)phenyl acetate]",pEC50,LNCaP cells,5.60 to 5.77
same,"mode of cell death (caspase 3/7 activity, Annexin V)",Panc-1 cells [1],die in an apoptotic manner
same,necrosis (cells only positive for 7-ADD),Panc-1 cells [1],did not induce necrosis
same,effect on MEFs growth,[2],no effect
same,pIC50,"[2]; Mus musculus, Fibroblast, read-out: IC50, normal (Mouse Embryonic Fibroblasts) cells",< 4.30
same,NF-κB DNA binding (EMSA band),NF-κB,NF-κB band faded away in a dose dependent manner
same,pIC50,BxPC3 cells,5.30 to 6.00
same,systemic toxicity from body weights of mice,[3]; 45.2 mg/Kg IP three times per week for 18 days,no apparent no systemic toxicity
same,tumor growth inhibition compared to vehicle treated mice,"[3]; 45.2 mg/kg IP three times per week for 18 days, athymic nude mice",~70%
same,total apoptotic cells,Panc-1 cells [4],~25%
same,prostate specific antigen (PSA) in cell culture media of LnCAP cells,[5],inhibited
same,androgen receptor (AR) level,[5]; LNCaP,down regulated
same,expression of p21 and p-H2A.X,[5]; LNCaP,increased the expression
same,protein level of AR and PSA (Western blot),"[5]; LNCaP, concentration-dependent",decreased protein level
same,"safety margin, preliminary toxicology study in mice","[6]; mouse, in vivo",wide safety margin
same,tolerability of AS-10 relative to Asp-SeCN (MTD),[6]; nude mice,~5 times
same,MTD,"[6]; nude, mouse, in vivo, ip",~80 mg/kg
